Measurements as given in patent publication US20170296456A1, “PRODUCTS AND METHODS FOR TREATING PERIORBITAL DYSCHROMIA” (The Procter & Gamble Company, priority 2016, published 2017).

Test system: B16-F1 mouse melanoma cell line
Assay: B16 melanin synthesis inhibition assay
Type: cell-based
Settings: B16-F1 cells, OD 410 nm
Description: In this example, a commercially available B16-F1 mouse melanoma cell line from American Tissue Culture Collection, Virginia, USA was employed in a conventional melanin synthesis inhibition assay. The cell culture medium used in the assay is 500 mL of Dulbecco's Modified Eagle's Medium (DMEM), 50 mL Fetal Bovine Serum (FBS), and 5 mL of penicillin-streptomycin liquid. B16-F1 cells that are cultured in this medium and grown to greater than 90% confluency will synthesize melanin. While not intending to be bound by any theory, it is hypothesized that the melanin synthesis is stimulated by the culture medium and/or stress induced by growth to a high confluency. […] Equipment used in the assay include a CO2 incubator, such as a Forma Series Model 3110 by Therma Scientific, Massachusetts, USA; a hemocytometer, such as a Bright Line model by Hauser Scientific, Pennsylvania, USA; and a UV-Visible Spectrum Plate Reader, such as a SpectraMax250 from Molecular Devices, California, USA. […] Day 3: The cells from the T-150 flask are trypsinized, and the concentration of cells is determined using the hemacytometer. […] Read the 96 well plate using the UV-Vis Plate Reader at 410 nm to optically measure the amount of melanin produced between wells that are treated with the fava bean extract and control wells that are not. […] The concentration of test agent needed to provide the IC 50 is recorded. […]

Concentration Needed for IC 50 [v/v] | Compound
0.008 | Oc1ccc(OC2CCCCO2)cc1 (centres unmarked) [Deoxyarbutin]
0.01 | O=c1cc(CO)occ1O [Kojic Acid]
